We go through 82 compounds from PubChem BioAssay AID588645 (Sanford-Burnham Center for Chemical Genomics, 2011).

For the assay, the target named is Intestinal-type alkaline phosphatase (Homo sapiens) (UniProt P09923). Description: inhibition of human intestinal alkaline phosphatase – biochemical, set 2, mouse IAP inhibitor project, SAR follow-up (AID 588645). As to conditions: human intestinal alkaline phosphatase enzymatic inhibition assay.

The source made the active and inactive calls. The rule behind the calls is not given here.

In general, IC50 refers to the concentration needed to halve the response being measured.

Chain of Intestinal-type alkaline phosphatase (Homo sapiens) (P09923 whole entry, looked up): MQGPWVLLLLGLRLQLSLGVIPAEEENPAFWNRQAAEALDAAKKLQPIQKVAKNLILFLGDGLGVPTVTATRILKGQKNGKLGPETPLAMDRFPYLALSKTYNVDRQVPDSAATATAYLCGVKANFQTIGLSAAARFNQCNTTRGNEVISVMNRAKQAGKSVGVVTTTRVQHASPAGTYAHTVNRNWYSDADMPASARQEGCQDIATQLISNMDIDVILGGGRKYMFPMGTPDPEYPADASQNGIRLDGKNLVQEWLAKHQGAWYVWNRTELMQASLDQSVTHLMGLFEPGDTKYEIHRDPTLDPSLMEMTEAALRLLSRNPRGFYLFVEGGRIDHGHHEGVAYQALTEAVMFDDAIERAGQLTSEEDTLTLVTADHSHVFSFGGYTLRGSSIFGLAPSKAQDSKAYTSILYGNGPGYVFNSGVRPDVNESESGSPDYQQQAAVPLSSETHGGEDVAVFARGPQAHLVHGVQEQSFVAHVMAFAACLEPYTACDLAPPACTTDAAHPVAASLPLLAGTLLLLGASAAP

In the case of `Cc1ccc(NC(=O)CCNS(=O)(=O)c2ccc3c(c2)oc(=O)n3C)cc1C`, the IC50 was > 100 µM (inactive).

In the case of `O=C(N/N=C/c1cccc(Cl)c1Cl)c1cc(O)c(O)c(O)c1`, the IC50 was 64.3 µM.

Regarding `CCOc1cc(C(=O)N/N=C/c2c(F)cccc2Cl)cc(OCC)c1OCC`, the IC50 was > 100 µM (inactive).

In the case of `N#Cc1ccc(NS(=O)(=O)c2ccc3[nH]c(=O)oc3c2)cc1`, the IC50 was > 100 µM (inactive).

Take `N#Cc1cccc(CNC(=O)CCNS(=O)(=O)c2ccc3[nH]c(=O)oc3c2)c1`: the IC50 is > 100 µM (inactive).

Consider `O=C(CCNS(=O)(=O)c1ccc2[nH]c(=O)oc2c1)NCc1ccc2c(c1)OCO2`, for which the IC50 is > 100 µM (inactive).

For `O=c1[nH]c2ccc(S(=O)(=O)Nc3ccc4c(c3)OCO4)cc2o1`, the IC50 is > 100 µM (inactive).

`O=C(CCNS(=O)(=O)c1ccc2[nH]c(=O)oc2c1)NCc1cccc(Cl)c1`: the IC50 is > 100 µM (inactive).

As for `O=C(CCNS(=O)(=O)c1ccc2c(c1)CCC2)NCCc1ccc2c(c1)OCO2`, the IC50 is > 100 µM (inactive).

Consider `O=C(N/N=C/c1ccc(Br)cc1F)c1cc(O)ccc1O`, for which the IC50 is > 100 µM (inactive).

Consider `Cc1ccc(C)c(NC(=O)C2CCCN(S(=O)(=O)c3ccc4c(c3)oc(=O)n4C)C2)c1` (configuration not stated), for which the IC50 is > 100 µM (inactive).

For the compound `CCOc1ccc(CNC(=O)C2CCCN(S(=O)(=O)c3ccc4[nH]c(=O)oc4c3)C2)cc1OC` (configuration not stated), the IC50 was > 100 µM (inactive).

Regarding `COc1cccc(NC(=O)CCNS(=O)(=O)c2ccc3c(c2)oc(=O)n3C)c1`, the IC50 is > 100 µM (inactive).

Regarding `Cc1ccc(C)c(NS(=O)(=O)c2ccc3[nH]c(=O)oc3c2)c1`, the IC50 is > 100 µM (inactive).

As to `O=C(CNS(=O)(=O)c1ccc2[nH]c(=O)oc2c1)NCCc1ccc2c(c1)OCO2`, the IC50 is > 100 µM (inactive).

As for `COc1ccc(CNS(=O)(=O)c2ccc3[nH]c(=O)oc3c2)c(OC)c1`, the IC50 is > 100 µM (inactive).

Turning to `O=C(CCNS(=O)(=O)c1ccc2[nH]c(=O)oc2c1)NCc1cccc(F)c1`, the IC50 is > 100 µM (inactive).

With `O=C(CCNS(=O)(=O)c1ccc2[nH]c(=O)oc2c1)NCc1ccc(F)cc1`, the IC50 was > 100 µM (inactive).

Regarding `COc1ccc(/C=N/NC(=O)c2cc(O)c(O)c(O)c2)c(OC)c1`, the IC50 was > 100 µM (inactive).

For the compound `COc1ccc(/C=N/NC(=O)c2cc(O)c(O)c(O)c2)cc1OC`, the IC50 was > 100 µM (inactive).

For the compound `O=C(CCCNS(=O)(=O)c1ccc2[nH]c(=O)oc2c1)NCc1cccc(F)c1`, the IC50 was > 100 µM (inactive).

For `O=C(CCS(=O)(=O)Nc1ccc2[nH]c(=O)oc2c1)NCc1cccc(Cl)c1`, the IC50 is > 100 µM (inactive).

For the compound `COc1ccc(CNC(=O)CCCNS(=O)(=O)c2ccc3[nH]c(=O)oc3c2)cc1OC`, the IC50 is > 100 µM (inactive).

With `COc1cccc(CNS(=O)(=O)c2ccc3[nH]c(=O)oc3c2)c1`, the IC50 is > 100 µM (inactive).

Take `O=C(CCNS(=O)(=O)c1ccc2[nH]c(=O)oc2c1)NCc1ccccc1`: the IC50 was > 100 µM (inactive).

`O=C(CCCNS(=O)(=O)c1ccc2[nH]c(=O)oc2c1)NCc1ccccc1Cl`: the IC50 was > 100 µM (inactive).

Turning to `COc1ccc(CNC(=O)CCNS(=O)(=O)c2ccc3ccccc3c2)c(OC)c1`, the IC50 is > 100 µM (inactive).

Consider `CCc1ccc(NC(=O)C2CCCN(S(=O)(=O)c3ccc4c(c3)oc(=O)n4C)C2)cc1` (configuration not stated), for which the IC50 is > 100 µM (inactive).

Take `Cc1ccc(CNC(=O)C2CCCN(S(=O)(=O)c3ccc4[nH]c(=O)oc4c3)C2)cc1` (configuration not stated): the IC50 was > 100 µM (inactive).

Consider `O=C(N/N=C/c1ccc(Cl)c(Cl)c1)c1cc(O)c(O)c(O)c1`, for which the IC50 was > 100 µM (inactive).

For the compound `O=C(NCc1ccccc1)C1CCCN(S(=O)(=O)c2ccc3[nH]c(=O)oc3c2)C1` (configuration not stated), the IC50 is > 100 µM (inactive).

Regarding `COc1ccc(CNC(=O)CCNS(=O)(=O)c2ccc3c(c2)CCC3)c(OC)c1`, the IC50 was > 100 µM (inactive).

For the compound `O=c1[nH]c2ccc(S(=O)(=O)NCc3ccc4c(c3)OCO4)cc2o1`, the IC50 is > 100 µM (inactive).

Turning to `CSc1cccc(NC(=O)C2CCCN(S(=O)(=O)c3ccc4c(c3)oc(=O)n4C)C2)c1` (configuration not stated), the IC50 was > 100 µM (inactive).

For the compound `COc1ccccc1CNC(=O)CCNS(=O)(=O)c1ccc2[nH]c(=O)oc2c1`, the IC50 is > 100 µM (inactive).

In the case of `O=C(CCS(=O)(=O)Nc1ccc2[nH]c(=O)oc2c1)NCc1ccccc1Cl`, the IC50 is > 100 µM (inactive).

Turning to `O=C(N/N=C/c1c(F)cccc1Cl)c1ccc(O)cc1`, the IC50 is > 100 µM (inactive).

In the case of `Cc1ccc(CNC(=O)CCNS(=O)(=O)c2ccc3[nH]c(=O)oc3c2)cc1`, the IC50 is > 100 µM (inactive).

In the case of `COc1ccc(CNC(=O)C2CCCN(S(=O)(=O)c3ccc4[nH]c(=O)oc4c3)C2)cc1` (configuration not stated), the IC50 is > 100 µM (inactive).

With `Cc1ccc(C)c(NC(=O)CCNS(=O)(=O)c2ccc3c(c2)CCC3)c1`, the IC50 was > 100 µM (inactive).

As for `O=C(CCNS(=O)(=O)c1ccc2[nH]c(=O)oc2c1)NCc1ccc(C(F)(F)F)cc1`, the IC50 is > 100 µM (inactive).

In the case of `COc1ccc(NC(=O)CCNS(=O)(=O)c2ccc3c(c2)CCC3)cc1OC`, the IC50 is > 100 µM (inactive).

For `O=C(NCc1ccc(F)cc1)C1CCCN(S(=O)(=O)c2ccc3[nH]c(=O)oc3c2)C1` (configuration not stated), the IC50 is > 100 µM (inactive).

On to `O=C(NCc1ccc2c(c1)OCO2)C1CCCN(S(=O)(=O)c2ccc3[nH]c(=O)oc3c2)C1` (configuration not stated), for which the IC50 was > 100 µM (inactive).

As to `COc1ccc(CNC(=O)CCNS(=O)(=O)c2ccc3[nH]c(=O)oc3c2)c(OC)c1`, the IC50 was > 100 µM (inactive).

Regarding `O=C(N/N=C/c1cc(Br)ccc1F)c1ccc(O)cc1`, the IC50 is > 100 µM (inactive).

As for `COc1ccc(CNC(=O)CNS(=O)(=O)c2ccc3[nH]c(=O)oc3c2)c(OC)c1`, the IC50 was > 100 µM (inactive).

`O=c1[nH]c2ccc(S(=O)(=O)NCCc3ccc4c(c3)OCO4)cc2o1`: the IC50 was > 100 µM (inactive).

On to `COc1cccc(C(=O)N/N=C/c2ccccc2F)c1`, for which the IC50 was > 100 µM (inactive).

For `O=C(CCNS(=O)(=O)c1ccc2[nH]c(=O)oc2c1)NCc1ccccc1F`, the IC50 is > 100 µM (inactive).

Regarding `COc1ccc(CNS(=O)(=O)c2ccc3[nH]c(=O)oc3c2)cc1`, the IC50 is > 100 µM (inactive).

In the case of `COc1cccc(/C=N/NC(=O)c2cc(O)c(O)c(O)c2)c1O`, the IC50 is > 100 µM (inactive).

As to `CSc1cccc(NC(=O)CCNS(=O)(=O)c2ccc3c(c2)oc(=O)n3C)c1`, the IC50 was > 100 µM (inactive).

As for `COc1ccc(CCNC(=O)CCCNS(=O)(=O)c2ccc3[nH]c(=O)oc3c2)cc1OC`, the IC50 was > 100 µM (inactive).

Turning to `C/C(=N\NC(=O)c1cc(O)c(O)c(O)c1)c1ccc(O)cc1O`, the IC50 was > 100 µM (inactive).

Consider `Cc1ccc(C)c(NC(=O)CNS(=O)(=O)c2ccc3[nH]c(=O)oc3c2)c1`, for which the IC50 was > 100 µM (inactive).

Regarding `O=C(CCNS(=O)(=O)c1ccc2[nH]c(=O)oc2c1)Nc1ccc2c(c1)OCO2`, the IC50 was > 100 µM (inactive).

Take `O=C(N/N=C/c1c(F)cccc1F)c1ccc(O)cc1`: the IC50 was > 100 µM (inactive).

With `N#Cc1cccc(NC(=O)CNS(=O)(=O)c2ccc3[nH]c(=O)oc3c2)c1`, the IC50 is > 100 µM (inactive).

Take `Cc1ccc(NC(=O)CCNS(=O)(=O)c2ccc3c(c2)oc(=O)n3C)cc1`: the IC50 is > 100 µM (inactive).

For the compound `O=C(N/N=C/c1ccccc1F)c1ccc(O)cc1`, the IC50 is > 100 µM (inactive).

Regarding `O=C(N/N=C/c1c(Cl)cccc1Cl)c1cc(O)c(O)c(O)c1`, the IC50 was > 100 µM (inactive).

Regarding `O=C(N/N=C/c1ccc(F)cc1F)c1ccc(O)cc1`, the IC50 is > 100 µM (inactive).

Take `Cc1cc(NC(=O)CCNS(=O)(=O)c2ccc3[nH]c(=O)oc3c2)ccc1Br`: the IC50 was > 100 µM (inactive).

With `O=C(CCNS(=O)(=O)c1ccc2[nH]c(=O)oc2c1)NCc1ccc(O)c(O)c1`, the half-inhibitory concentration (IC50) was 18.1 µM.

`Cc1ccc(C)c(CNC(=O)C2CCCN(S(=O)(=O)c3ccc4[nH]c(=O)oc4c3)C2)c1` (configuration not stated): the IC50 is > 100 µM (inactive).

For the compound `COc1ccc(NC(=O)CCCNS(=O)(=O)c2ccc3[nH]c(=O)oc3c2)cc1OC`, the IC50 is > 100 µM (inactive).

Turning to `O=C(CCNS(=O)(=O)c1ccc2ccccc2c1)NCCc1ccc2c(c1)OCO2`, the IC50 was > 100 µM (inactive).

Turning to `COc1cccc(CNC(=O)CCNS(=O)(=O)c2ccc3[nH]c(=O)oc3c2)c1`, the IC50 is > 100 µM (inactive).

For `COc1ccc(C(=O)N/N=C/c2ccccc2F)cc1`, the IC50 is > 100 µM (inactive).

With `O=C(N/N=C/c1ccc(F)c(Br)c1)c1cc(O)c(O)c(O)c1`, the IC50 is > 100 µM (inactive).

For `O=C(N/N=C/c1ccccc1Cl)c1cc(O)c(O)c(O)c1`, the IC50 was > 100 µM (inactive).

For `COc1cc(C(=O)N/N=C/c2c(F)cccc2Cl)cc(OC)c1OC`, the IC50 is > 100 µM (inactive).

For `CCc1ccc(NC(=O)CCNS(=O)(=O)c2ccc3c(c2)oc(=O)n3C)cc1`, the IC50 is > 100 µM (inactive).

As for `O=C(CCS(=O)(=O)Nc1ccc2[nH]c(=O)oc2c1)NCc1cccc(F)c1`, the IC50 was > 100 µM (inactive).

`COc1ccc(C(=O)N/N=C/c2c(F)cccc2Cl)cc1OC`: the IC50 is > 100 µM (inactive).

Take `O=C(N/N=C/c1ccccc1F)c1ccc(O)cc1O`: the IC50 is > 100 µM (inactive).

For the compound `O=C(N/N=C/c1ccccc1F)c1ccccc1OCc1ccccc1`, the IC50 was > 100 µM (inactive).

In the case of `O=C(CCCNS(=O)(=O)c1ccc2[nH]c(=O)oc2c1)NCc1ccc2c(c1)OCO2`, the IC50 was > 100 µM (inactive).

In the case of `CC(C)c1ccc(NC(=O)C2CCCN(S(=O)(=O)c3ccc4c(c3)oc(=O)n4C)C2)cc1` (configuration not stated), the IC50 is > 100 µM (inactive).

Turning to `CC(C)c1ccc(/C=N/NC(=O)c2cc(O)c(O)c(O)c2)cc1`, the half-maximal inhibitory concentration (IC50) was 10.9 µM.

As to `N#Cc1ccc(NC(=O)CNS(=O)(=O)c2ccc3[nH]c(=O)oc3c2)cc1`, the IC50 was > 100 µM (inactive).
